Measured values as given in patent US6596036B2, “Method for the production of a dye preparation based on madder root” (Coöperatie Rubia U.A., priority 2000, dated 2003).

Key:
[1] = solubility in water (statement in Example 3); type: physicochemical; details: stated to explain the reaction speed in the madder root extraction mixture
Description: After analysis of the reaction mixture it follows that within 60 minutes all LP is converted into LUC. After the reaction vessel is opened, LUC is converted into NOR, a step which takes 6 hours. When oxygen is present LUC can not be detected, which means that its conversion is much faster than in the present experimental situation. […] Therefore, it is in general difficult for the enzyme to oxidize the solid LUC to NOR. However, when the reaction is performed under oxygen LUC cannot crystalize, because it is immediately oxidized to NOR.

[2] = stated as known, no test described; cited from earlier work

SMILES	solubility in water [1]	mutagenicity [2]
O=C1c2ccccc2C(=O)c2c1cc(O)c(CO)c2O [LUC, lucidin]	not soluble in water	mutagenic
O=Cc1c(O)cc2c(c1O)C(=O)c1ccccc1C2=O [NOR, nordamnacanthal]	insoluble in water	–
